Laboratory results: patent US4876284A, “1-alkyl-2-aminotetralin derivatives” (Per Arvid Emil Carlsson, priority 1981, dated 1989)
“Also recorded” adds a separate entry of the source.

Tests used:
[1] = system: central DA-receptor (pre- and/or postsynaptic); test: Rat-brain in-vivo tyrosine hydroxylation: Dopa accumulation after NSD 1015 in reserpine-pretreated rats; conditions: for Dopa-accumulation; ED50, Limbic / Dopa-accumulation; ED50, Striatum: half-maximal decrease in Dopa level
Experimental: The compounds under evaluation were tested biochemically for central DA-receptor (pre- and/or postsynaptic) stimulating activity. The concept of this biochemical screening method is that a DA-receptor agonist will stimulate the receptor and through regulatory feedback systems effect a decline in tyrosine hydroxylase activity and thus a subsequent reduction in the synthesis rate for DA in the presynaptic neuron. Dopa formation, as determined after in-vivo inhibition of the aromatic L-amino acid decarboxylase with NSD 1015 (3-hydroxybenzyl-hydrazine hydrochloride), is taken as an indirect measure of DA synthesis rate.
Rats (150-300 g) pretreated with reserpine were given the compounds under evaluation. Gross behavioural observations (changes in motility, stereotypies etc.) were made in order to evaluate possible postsynaptic dopamine receptor activity. subsequent administration of NSD 1015, decapitation, brain dissection [corpora striata, limbic fore-brain and rest of the hemispheral parts (cortex)]homogenization, centrifugation, ion-exchange chromatography and spectro-fluorimetric measurements (all as described in detail by Wikstrom et al., in J. Med. Chem. 21, 864-867, 1978 and references cited therein), gave the actual Dopa levels.
Several doses (n=4-6) were tested in order to obtain dose-response curves for each compound and brain area. The dose of a compound producing a half-maximal decrease in the Dopa level in the rat brain part was then estimated. These values (ED50) are presented in Table I. (Simultaneous determination of the 5-HTP levels was also performed utilizing the same paradigm.)
^b Rats pretreated with reserpine (10 mg/kg i.p.; 18 h) were given th
compounds under evaluation. Fortyfive minutes later they were injected
with NSD 1015 (100 mg/kg i.p.) and after a further 30 min they were
decapitated, the brains rapidly dissected and taken for determination of
the Dopa and 5HTP levels in different areas of the brain. The dose of a
compound producing a halfmaximal decrease (ED50) in the Dopa level i
the rat brain part was then estimated from doseresponse curves comprising
4-6 dose levels. (For further details see the text and references).

brain DA synthesis rate = test: Formation of Dopa in rat brain regions (non-pretreated rats, NSD 1015); assay type: in vivo; design: formation of Dopa, Limbic forebrain / formation of Dopa, Striatum / formation of Dopa, Diencephalon / formation of Dopa, Brain-stem: unit not given here; conditions: for formation of Dopa, Brain-stem / formation of Dopa, Diencephalon / formation of Dopa, Hemispheral (cortical) parts / formation of Dopa, Limbic forebrain / formation of Dopa, Striatum: mean ± sem
Experimental: (§1) Immediately thereafter the animals were removed from the boxes. Part of
(§2) the animals were injected with NSD 1015 (100 mg/kg i.p.) and after a
(§3) further 30 min they were killed, the brains rapidly dissected and taken
(§4) for determination of the Dopa and 5HTP levels in different areas of the […]

DA autoreceptors = test: Spontaneous locomotor activity in non-pretreated rats; assay type: in vivo, rat
Experimental: Untreated animals exposed to a new environment display an initial high motor activity which then gradually declines over a period of time. Administration of DA-receptor agonists (e.g. apomorphine) in doses where preferential autoreceptor stimulation is likely to occur, causes a depression of the spontaneous motility mentioned above, considered to be due to the DA autoreceptor-medicated attenuation of central DA transmission.
Rats (150-300 g) were injected subcutaneously with compound 2,5-OH-DPAT or apomorphine and after 5 minutes they were individually placed in motility boxes ("M/P 40 Fc Electronic Motility Meter". Motron Products, Stockholm) and the motor activity (0-30 min) was quantified. […] These findings are in congruence with the results obtained with the selective DA-autoreceptor agonist 3-PPP [S. Hjorth t al., Life Sciences, 28, 1225 (1981)] but in sharp contrast to the results obtained with 5-OH-DPAT and apomorphine (Table III).
Non-pretreated rats were given compound -2 (0.0625-16.0 mg/kg),
5OH--2-(di-n-propylamino) tetralin (5OH--DPAT; 0.0125-0.05 mg/kg,
apomorphine (0.1-1.0 mg/kg) or saline subcutaneously. Five minutes later
they were placed individually into motility meters and the locomotor

[2] = system: postsynaptic DA receptors; test: Antagonism of the reserpine plus α-methyl-para-tyrosine-induced immobility (neuroleptic syndrome) in rats; motor activity; conditions: for Motor activity: 10 mg/kg s.c., reserpine 10 mg/kg + α-methyl-para-tyrosine 250 mg/kg i.p., means ± s.e.m.; for motor response / postsynaptic DA-receptor stimulatory effects: comparative study, Table II, s.c.; for antagonism of the reserpine-induced syndrome / behaviour elicited / postsynaptic DA-receptor stimulation: reserpine and α-methyl-para-tyrosine pretreated rats
[3] = system: brain 5-HT synthesis rate; test: Formation of 5-hydroxytryptophan in rat brain regions (non-pretreated rats, NSD 1015); assay type: in vivo; design: formation of 5-hydroxytryptophan, Limbic forebrain / formation of 5-hydroxytryptophan, Striatum / formation of 5-hydroxytryptophan, Diencephalon / formation of 5-hydroxytryptophan, Brain-stem: unit not given here; conditions: for formation of 5-hydroxytryptophan, Brain-stem / formation of 5-hydroxytryptophan, Diencephalon / formation of 5-hydroxytryptophan, Hemispheral (cortical) parts / formation of 5-hydroxytryptophan, Limbic forebrain / formation of 5-hydroxytryptophan, Striatum: mean ± sem
Experimental: as §1, §2, §3, §4

[4] = limbic forebrain, reserpine-pretreated rats, s.c.
[5] = striatum, reserpine-pretreated rats, s.c.

Br.CCCN(CCC)[C@H]1CCc2c(O)cccc2[C@H]1C (relative stereo) [Compound 2, cis-5-Hydroxy-1-methyl-2-(di-n-propylamino) tetralin hydrobromid]
Dopa-accumulation; ED50, Limbic [1, 4]: 0.67 μmol/kg s.c. | Dopa-accumulation; ED50, Striatum [1, 5]: 0.80 μmol/kg s.c. | potency relative to 3-PPP (times more potent) ([1]; versus 3-PPP, Dopa accumulation): approximately 5 times | comparative potency, in words ([1]; versus trans-1-CH3-5-OH-DPAT, 5-OH-DPAT, apomorphine, Dopa accumulation): equipotent to trans-1-CH3 -5-OH-DPAT; also recorded: less potent than 5-OH-DPAT; also recorded: of the same order of potency as apomorphine | formation of Dopa, Brain-stem (brain DA synthesis rate; 0.0625 mg/kg s.c.): 177 ± 10 | formation of Dopa, Diencephalon (brain DA synthesis rate; 0.0625 mg/kg s.c.): 148 ± 5 | formation of Dopa, Hemispheral (cortical) parts (brain DA synthesis rate; 0.0625 mg/kg s.c.): 66 ± 2 | formation of Dopa, Limbic forebrain (brain DA synthesis rate; 0.0625 mg/kg s.c.): 114 ± 6 | formation of Dopa, Striatum (brain DA synthesis rate; 0.0625 mg/kg s.c.): 65 ± 4 | formation of Dopa, Brain-stem (brain DA synthesis rate; 0.25 mg/kg s.c.): 170 ± 6 | formation of Dopa, Diencephalon (brain DA synthesis rate; 0.25 mg/kg s.c.): 144 ± 2 | formation of Dopa, Hemispheral (cortical) parts (brain DA synthesis rate; 0.25 mg/kg s.c.): 63 ± 2 | formation of Dopa, Limbic forebrain (brain DA synthesis rate; 0.25 mg/kg s.c.): 116 ± 3 | formation of Dopa, Striatum (brain DA synthesis rate; 0.25 mg/kg s.c.): 71 ± 5 | formation of Dopa, Brain-stem (brain DA synthesis rate; 1.0 mg/kg s.c.): 167 ± 8 | formation of Dopa, Diencephalon (brain DA synthesis rate; 1.0 mg/kg s.c.): 134 ± 7 | formation of Dopa, Hemispheral (cortical) parts (brain DA synthesis rate; 1.0 mg/kg s.c.): 60 ± 1 | formation of Dopa, Limbic forebrain (brain DA synthesis rate; 1.0 mg/kg s.c.): 107 ± 5 | formation of Dopa, Striatum (brain DA synthesis rate; 1.0 mg/kg s.c.): 75 ± 6 | formation of Dopa, Brain-stem (brain DA synthesis rate; 4.0 mg/kg s.c.): 170 ± 5 | formation of Dopa, Diencephalon (brain DA synthesis rate; 4.0 mg/kg s.c.): 137 ± 3 | formation of Dopa, Hemispheral (cortical) parts (brain DA synthesis rate; 4.0 mg/kg s.c.): 59 ± 2 | formation of Dopa, Limbic forebrain (brain DA synthesis rate; 4.0 mg/kg s.c.): 113 ± 3 | formation of Dopa, Striatum (brain DA synthesis rate; 4.0 mg/kg s.c.): 72 ± 4 | formation of Dopa, Brain-stem (brain DA synthesis rate; 16.0 mg/kg s.c.): 170 ± 8 | formation of Dopa, Diencephalon (brain DA synthesis rate; 16.0 mg/kg s.c.): 137 ± 5 | formation of Dopa, Hemispheral (cortical) parts (brain DA synthesis rate; 16.0 mg/kg s.c.): 59 ± 2 | formation of Dopa, Limbic forebrain (brain DA synthesis rate; 16.0 mg/kg s.c.): 108 ± 5 | formation of Dopa, Striatum (brain DA synthesis rate; 16.0 mg/kg s.c.): 73 ± 4 | effect on brain DA synthesis rate, in words (brain DA synthesis rate; non-pretreated rats, s.c.): significant decrease in rate brain DA synthesis rate; also recorded: marked difference in response between the limbic forebrain and the striatal structures | Locomotor activity (DA autoreceptors; 0.0625 mg/kg s.c., non-pretreated rats): 146 ± 4 counts 0.30 min | Locomotor activity (DA autoreceptors; 0.25 mg/kg s.c., non-pretreated rats): 117 ± 11 counts 0.30 min | Locomotor activity (DA autoreceptors; 1.0 mg/kg s.c., non-pretreated rats): 82 ± 8 counts 0.30 min | Locomotor activity (DA autoreceptors; 4.0 mg/kg s.c., non-pretreated rats): 62 ± 5 counts 0.30 min | Locomotor activity (DA autoreceptors; 16.0 mg/kg s.c., non-pretreated rats): 63 ± 9 counts 0.30 min | maximal decrease of the initial high motor activity from control values (DA autoreceptors; at about 4 mg/kg s.c., 0-30 min): 70% | effect on locomotor activity, in words (DA autoreceptors; non-pretreated rats, s.c.): clear and significant dose-dependent decrease of the initial high motor activity; also recorded: No locomotor stimulation is ever seen | dose at which the maximal effect on motor activity is attained (DA autoreceptors; s.c., 0-30 min): about 4 mg/kg | Motor activity [2]: 52 ± 5 counts 0-60 min | motor response / postsynaptic DA-receptor stimulatory effects [2]: failed to elicit a motor response that differed more than slightly from control values | antagonism of the reserpine-induced syndrome / behaviour elicited [2]: inability of compound 2 to antagonize the reserpine-induced syndrome | postsynaptic DA-receptor stimulation [2]: compound 2 is not | formation of 5-hydroxytryptophan, Brain-stem ([3]; 0.0625 mg/kg s.c.): 98 ± 4 | formation of 5-hydroxytryptophan, Diencephalon ([3]; 0.0625 mg/kg s.c.): 196 ± 8 | formation of 5-hydroxytryptophan, Hemispheral (cortical) parts ([3]; 0.0625 mg/kg s.c.): 40 ± 3 | formation of 5-hydroxytryptophan, Limbic forebrain ([3]; 0.0625 mg/kg s.c.): 314 ± 15 | formation of 5-hydroxytryptophan, Striatum ([3]; 0.0625 mg/kg s.c.): 458 ± 17 | formation of 5-hydroxytryptophan, Brain-stem ([3]; 0.25 mg/kg s.c.): 96 ± 11 | formation of 5-hydroxytryptophan, Diencephalon ([3]; 0.25 mg/kg s.c.): 170 ± 9 | formation of 5-hydroxytryptophan, Hemispheral (cortical) parts ([3]; 0.25 mg/kg s.c.): 46 ± 2 | formation of 5-hydroxytryptophan, Limbic forebrain ([3]; 0.25 mg/kg s.c.): 305 ± 14 | formation of 5-hydroxytryptophan, Striatum ([3]; 0.25 mg/kg s.c.): 448 ± 26 | formation of 5-hydroxytryptophan, Brain-stem ([3]; 1.0 mg/kg s.c.): 96 ± 7 | formation of 5-hydroxytryptophan, Diencephalon ([3]; 1.0 mg/kg s.c.): 170 ± 11 | formation of 5-hydroxytryptophan, Hemispheral (cortical) parts ([3]; 1.0 mg/kg s.c.): 43 ± 3 | formation of 5-hydroxytryptophan, Limbic forebrain ([3]; 1.0 mg/kg s.c.): 291 ± 9 | formation of 5-hydroxytryptophan, Striatum ([3]; 1.0 mg/kg s.c.): 420 ± 30 | formation of 5-hydroxytryptophan, Brain-stem ([3]; 4.0 mg/kg s.c.): 111 ± 8 | formation of 5-hydroxytryptophan, Diencephalon ([3]; 4.0 mg/kg s.c.): 176 ± 10 | formation of 5-hydroxytryptophan, Hemispheral (cortical) parts ([3]; 4.0 mg/kg s.c.): 47 ± 2 | formation of 5-hydroxytryptophan, Limbic forebrain ([3]; 4.0 mg/kg s.c.): 267 ± 6 | formation of 5-hydroxytryptophan, Striatum ([3]; 4.0 mg/kg s.c.): 479 ± 9 | formation of 5-hydroxytryptophan, Brain-stem ([3]; 16.0 mg/kg s.c.): 118 ± 4 | formation of 5-hydroxytryptophan, Diencephalon ([3]; 16.0 mg/kg s.c.): 214 ± 13 | formation of 5-hydroxytryptophan, Hemispheral (cortical) parts ([3]; 16.0 mg/kg s.c.): 48 ± 3 | formation of 5-hydroxytryptophan, Limbic forebrain ([3]; 16.0 mg/kg s.c.): 272 ± 20 | formation of 5-hydroxytryptophan, Striatum ([3]; 16.0 mg/kg s.c.): 478 ± 10 | effect on brain 5-HT synthesis rate, in words ([3]; non-pretreated rats, s.c.): without any concomitant change in brain 5-HT synthesis rate

CCCN(CCC)[C@@H]1CCc2c(O)cccc2[C@H]1C (relative stereo) [trans-1-CH35-OHDPAT, trans-1-methyl-5-hydroxy-2-(di-n-propylamino)tetralin]
Dopa-accumulation; ED50, Limbic [1, 4]: 0.66 μmol/kg s.c. | Dopa-accumulation; ED50, Striatum [1, 5]: 0.73 μmol/kg s.c. | Motor activity [2]: 406 ± 47 counts 0-60 min | motor response / postsynaptic DA-receptor stimulatory effects [2]: strong central postsynaptic DA-receptor stimulatory effects | antagonism of the reserpine-induced syndrome / behaviour elicited [2]: pronounced stereotyped and hyperactive behaviour | postsynaptic DA-receptor stimulation [2]: efficient postsynaptic DA-receptor stimulants

CCCN(CCC)C1CCc2c(O)cccc2C1(C)C (centres unmarked) [1,1-di-CH35-OHDPAT, 1,1di-CH35-OH2-(di-n-propylamino) tetralin]
Dopa-accumulation; ED50, Limbic (class symbol) [1, 4]: I (Inactive. ED50 > 45 μmol/kg.) | biochemical activity (Dopa accumulation), in words ([1]; reserpine-pretreated rats, inactive even at 45 μmol/kg): completely inactive | Dopa-accumulation; ED50, Striatum (class symbol) [1, 5]: I (Inactive. ED50 > 45 μmol/kg.)
